In ChEMBL document CHEMBL5257079, “Discovery of FXR/PPARγ dual partial agonist” (Bioorg Med Chem, 2023):

Columns and labels:
Bile acid receptor [1] = molecular target: T1, Bile acid receptor (Homo sapiens, UniProt Q96RI1); assay: Partial agonist activity at FXR-LBD-GST (unknown origin) by TR-FRET assay
T1 sequence (Q96RI1 whole entry): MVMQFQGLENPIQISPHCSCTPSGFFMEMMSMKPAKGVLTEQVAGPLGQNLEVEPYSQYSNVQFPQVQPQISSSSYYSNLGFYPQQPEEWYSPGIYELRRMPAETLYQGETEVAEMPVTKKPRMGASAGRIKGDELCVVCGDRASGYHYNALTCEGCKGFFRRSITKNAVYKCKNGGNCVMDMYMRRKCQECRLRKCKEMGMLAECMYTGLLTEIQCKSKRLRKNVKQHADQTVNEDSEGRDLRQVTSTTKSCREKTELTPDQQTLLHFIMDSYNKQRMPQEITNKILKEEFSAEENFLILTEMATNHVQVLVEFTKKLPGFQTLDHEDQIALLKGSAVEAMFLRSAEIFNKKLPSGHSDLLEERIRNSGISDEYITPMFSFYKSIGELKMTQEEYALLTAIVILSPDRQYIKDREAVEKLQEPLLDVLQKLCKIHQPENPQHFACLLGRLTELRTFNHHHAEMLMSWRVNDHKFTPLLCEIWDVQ

[2] = Metabolic stability in mouse liver microsomes assessed as half life; assay type: ADME, Microsome
[3] = Metabolic stability in mouse liver microsomes assessed as parent compound remaining after 30 mins; assay type: ADME, Microsome; settings: read-out: Stability
Bile acid receptor [4] = molecular target: T1, Bile acid receptor; assay: Partial agonist activity at human FXR expressed in Huh-7 cells in presence of CDCA by luciferase reporter gene assay; assay type: cell-based
[5] = molecular target: T2, Bile acid receptor (Homo sapiens) (UniProt Q96RI1); assay: Partial agonist activity at human FXR expressed in Huh-7 cells in presence of CDCA by luciferase reporter gene assay relative to GW4064; assay type: cell-based
T2 sequence (whole entry): T1 sequence (Q96RI1 whole entry)

Bile acid receptor [6] = molecular target: T1, Bile acid receptor; assay: Antagonist activity at FXR-LBD-GST (unknown origin) in presence of GW4064

Structure (SMILES)	EC50 (Bile acid receptor [1])	EC50 (Bile acid receptor [1]; read-out: EC50) [nM]	also measured
CC(C)(C)c1ccc(NC(=O)c2ccc3ncn(Cc4ccc(C(=O)O)cc4)c3c2)cc1	Not Active	–	–
CC(C)(C)c1ccc(-n2cnc3c(NC(=O)c4ccc(C(=O)O)cc4)cccc32)cc1	–	490	half-life [2]: 24.6 min; remaining at 0.5 h [3]: 37.9%
CC(C)(C)c1ccc(Cn2cnc3c(NC(=O)Cc4ccc(C(=O)O)cc4)cccc32)cc1	–	410	–
CC(C)(C)c1ccc(Cn2cnc3c(NC(=O)c4ccc(C(=O)O)cc4)cccc32)cc1	–	140	EC50 (Bile acid receptor [4]): 2200 nM; Activity [5]: 6%
CC(C)(C)c1ccc(-c2cccc3c2ncn3Cc2ccc(C(=O)O)cc2)cc1	–	760	–
CC(C)(C)c1ccc(C(=O)Nc2cccc3c2ncn3Cc2ccc(C(=O)O)cc2)cc1	Not Active	–	–
CC(C)(C)c1ccc(-c2cccc3c2ncn3-c2ccc(C(=O)O)cc2)cc1	Not Active	–	–
CC(C)(C)c1ccc(Cn2cnc3cc(C(=O)Nc4ccc(C(=O)O)cc4)ccc32)cc1	Not Active	–	–
CC(C)(C)c1ccc(NC(=O)c2ccc3c(c2)ncn3Cc2ccc(C(=O)O)cc2)cc1	Not Active	–	–
CC(C)(C)c1ccc(C(=O)Nc2cccc3c2ncn3-c2ccc(C(=O)O)cc2)cc1	Not Active	–	–
CC(C)(C)c1ccc(Cn2c(-c3ccc(C(=O)O)cc3)nc3ccccc32)cc1	Not Active	–	–
CC(C)(C)c1ccc(-c2nc3ccccc3n2Cc2ccc(C(=O)O)cc2)cc1	Not Active	–	–
CC(C)(C)c1ccc(Cn2cnc3ccc(C(=O)Nc4ccc(C(=O)O)cc4)cc32)cc1	Not Active	–	–
CC(C)(C)c1ccc(Cn2cnc3c(-c4ccc(C(=O)O)cc4)cccc32)cc1	–	140	–
CC(C)(C)c1ccc(-n2cnc3c(-c4ccc(C(=O)O)cc4)cccc32)cc1	–	510	half-life [2]: 25 min; IC50 (Bile acid receptor [6]): 9900 nM; remaining at 0.5 h [3]: 36.9%
